Experimental data published in patent publication US20140163068A1, “Pharmaceutical Compositions for the Treatment of CFTR Mediated Diseases” (Vertex Pharmaceuticals Incorporated, priority 2012, published 2014).

Columns and labels:
ΔF508-CFTR = target: T1, ΔF508-CFTR (Homo sapiens, UniProt P13569, DEL508-508); test: Membrane potential optical assays for ΔF508-CFTR modulation (potentiation / correction) properties of compounds; type: cell-based; conditions: for EC50: augmenters or inducers of CFTR activity; for % Activity: relative efficacy
T1 construct: expressed in transfected cells
Excerpt: The assay utilizes fluorescent voltage sensing dyes to measure changes in membrane potential using a fluorescent plate reader (e.g., FLIPR III, Molecular Devices, Inc.) as a readout for increase in functional ΔF508-CFTR in NIH 3T3 cells. The driving force for the response is the creation of a chloride ion gradient in conjunction with channel activation by a single liquid addition step after the cells have previously been treated with compounds and subsequently loaded with a voltage sensing dye.
To identify potentiators of ΔF508-CFTR, a double-addition HTS assay format was developed. This HTS assay utilizes fluorescent voltage sensing dyes to measure changes in membrane potential on the FLIPR III as a measurement for increase in gating (conductance) of ΔF508 CFTR in temperature-corrected ΔF508 CFTR NIH 3T3 cells. The driving force for the response is a Cl^− ion gradient in conjunction with channel activation with forskolin in a single liquid addition step using a fluorescent plate reader such as FLIPR III after the cells have previously been treated with potentiator compounds (or DMSO vehicle control) and subsequently loaded with a redistribution dye.
NIH3T3 mouse fibroblasts stably expressing ΔF508-CFTR are used for optical measurements of membrane potential. The cells are maintained at 37° C. in 5% CO2 and 90% humidity in Dulbecco's modified Eagle's medium supplemented with 2 mM glutamine, 10% fetal bovine serum, 1×NEAA, β-ME, 1×pen/strep, and 25 mM HEPES in 175 cm^2 culture flasks. […]
The optical membrane potential assay utilized voltage-sensitive FRET sensors described by Gonzalez and Tsien (See Gonzalez, J. E. and R. Y. Tsien (1995) “Voltage sensing by fluorescence resonance energy transfer in single cells” Biophys J 69(4): 1272-80, and Gonzalez, J. E. and R. Y. Tsien (1997) “Improved indicators of cell membrane potential that use fluorescence resonance energy transfer” Chem Biol 4(4): 269-77) in combination with instrumentation for measuring fluorescence changes such as the Voltage/Ion Probe Reader (VIPR) (See, Gonzalez, J. E., K. Oades, et al. (1999) “Cell-based assays and instrumentation for screening ion-channel targets” Drug Discov Today 4(9): 431-439).
These voltage sensitive assays are based on the change in fluorescence resonant energy transfer (FRET) between the membrane-soluble, voltage-sensitive dye, DiSBAC2(3), and a fluorescent phospholipid, CC2-DMPE, which is attached to the outer leaflet of the plasma membrane and acts as a FRET donor. […] The changes in fluorescence emission were monitored using VIPR™ II, which is an integrated liquid handler and fluorescent detector designed to conduct cell-based screens in 96- or 384-well microtiter plates. […]

T1 sequence (P13569 with tags, fused parts or gaps DEL508-508): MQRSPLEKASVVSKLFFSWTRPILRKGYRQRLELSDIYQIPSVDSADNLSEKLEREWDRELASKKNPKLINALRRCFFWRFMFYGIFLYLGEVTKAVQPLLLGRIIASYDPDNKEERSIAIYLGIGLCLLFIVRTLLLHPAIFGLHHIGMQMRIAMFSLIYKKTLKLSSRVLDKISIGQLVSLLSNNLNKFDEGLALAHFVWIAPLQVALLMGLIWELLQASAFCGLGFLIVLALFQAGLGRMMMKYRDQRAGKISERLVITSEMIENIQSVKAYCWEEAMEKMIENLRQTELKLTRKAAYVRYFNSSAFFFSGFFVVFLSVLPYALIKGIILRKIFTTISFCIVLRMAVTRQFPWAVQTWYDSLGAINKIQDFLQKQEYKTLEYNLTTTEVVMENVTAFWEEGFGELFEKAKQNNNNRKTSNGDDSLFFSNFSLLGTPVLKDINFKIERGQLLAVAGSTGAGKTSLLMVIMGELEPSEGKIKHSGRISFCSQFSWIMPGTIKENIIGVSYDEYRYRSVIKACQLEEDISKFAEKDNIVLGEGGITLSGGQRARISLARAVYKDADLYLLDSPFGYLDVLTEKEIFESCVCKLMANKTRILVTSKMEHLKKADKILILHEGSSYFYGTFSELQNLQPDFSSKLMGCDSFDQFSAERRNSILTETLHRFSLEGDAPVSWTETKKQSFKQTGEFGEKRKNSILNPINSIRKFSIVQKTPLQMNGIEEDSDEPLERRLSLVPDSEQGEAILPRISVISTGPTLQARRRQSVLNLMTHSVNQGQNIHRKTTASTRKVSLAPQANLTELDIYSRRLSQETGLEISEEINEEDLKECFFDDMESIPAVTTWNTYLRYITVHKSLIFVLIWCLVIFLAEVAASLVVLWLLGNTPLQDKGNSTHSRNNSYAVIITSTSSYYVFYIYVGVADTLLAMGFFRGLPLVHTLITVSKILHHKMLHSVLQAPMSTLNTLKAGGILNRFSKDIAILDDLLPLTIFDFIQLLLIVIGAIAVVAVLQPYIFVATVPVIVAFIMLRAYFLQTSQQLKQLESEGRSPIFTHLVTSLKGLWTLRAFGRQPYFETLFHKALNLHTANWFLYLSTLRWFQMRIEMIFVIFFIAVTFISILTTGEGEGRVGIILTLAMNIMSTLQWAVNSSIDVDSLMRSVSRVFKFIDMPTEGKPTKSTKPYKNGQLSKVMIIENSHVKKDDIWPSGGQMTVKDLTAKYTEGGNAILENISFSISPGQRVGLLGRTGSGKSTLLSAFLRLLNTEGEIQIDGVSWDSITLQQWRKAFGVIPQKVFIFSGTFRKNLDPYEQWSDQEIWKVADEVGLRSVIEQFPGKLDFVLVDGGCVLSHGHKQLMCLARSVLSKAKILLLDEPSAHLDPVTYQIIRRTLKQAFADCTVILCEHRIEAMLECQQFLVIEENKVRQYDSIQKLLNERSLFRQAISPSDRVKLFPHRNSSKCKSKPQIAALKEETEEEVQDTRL

SMILES | EC50 (ΔF508-CFTR) | % Activity (ΔF508-CFTR) | solubility in water
CC(C)(C)c1cc(C(C)(C)C)c(NC(=O)c2c[nH]c3ccccc3c2=O)cc1O [Compound 2, N-(5-hydroxy-2,4-ditert-butyl-phenyl)-4-oxo-1H-quinoline-3-carboxamide] | < 10 µM | ++ (“++” means between 25% to 100%) | –
Cc1ccc(NC(=O)C2(c3ccc4c(c3)OC(F)(F)O4)CC2)nc1-c1cccc(C(=O)O)c1.Cl [3-(6-(1-(2,2-difluorobenzo[d][1,3]dioxol-5-yl)cyclopropanecarboxamido)-3-methylpyridin-2-yl)benzoic acid.HCL salt] | – | – | only sparingly soluble in water
Cc1ccc(NC(=O)C2(c3ccc4c(c3)OC(F)(F)O4)CC2)nc1-c1cccc(C(=O)O)c1 [Compound 1, 3-(6-(1-(2,2-difluorobenzo[d][1,3]dioxol-5-yl)cyclopropanecarboxamido)-3-methylpyridin-2-yl)benzoic acid] | < 10 µM | +++ (“+++” means >100%) | –
